Data as given in ChEMBL document CHEMBL1140389, “Synthesis and biological activity of macrocyclic inhibitors of hepatitis C virus (HCV) NS3 protease” (Bioorg Med Chem Lett, 2005).
Starred links: 1 amine or outer side, 2 acyl side, 3 side chain; linkers in the order of their positions; H or OH if unused. Positions of bridges follow the written chain, without caps; N, C: chain ends. Non-standard residues stand in square brackets, D forms with d. Residues, ends and D or L forms follow the SMILES beside them. *: point of attachment. Phe(3-(CH2)7CO) = O=C([C@H](Cc1cccc(CCCCCCCC(=O)[*:3])c1)N[*:1])[*:2]; X1 = CCCC(N[*:1])C(=O)C(=O)[*:2]; Chg = N[C@H](C(=O)O)C1CCCCC1; Phg = N[C@H](C(=O)O)c1ccccc1; OtBu = CC(C)(C)O*

What follows are molecules tested against NS3 (Hepatitis C virus, UniProt A3EZJ3) (assay: Inhibitory constant against NS3 serine protease of hepatitis c virus).
Parameters: species or system Hepacivirus hominis

Chain of NS3 (A3EZJ3 whole entry): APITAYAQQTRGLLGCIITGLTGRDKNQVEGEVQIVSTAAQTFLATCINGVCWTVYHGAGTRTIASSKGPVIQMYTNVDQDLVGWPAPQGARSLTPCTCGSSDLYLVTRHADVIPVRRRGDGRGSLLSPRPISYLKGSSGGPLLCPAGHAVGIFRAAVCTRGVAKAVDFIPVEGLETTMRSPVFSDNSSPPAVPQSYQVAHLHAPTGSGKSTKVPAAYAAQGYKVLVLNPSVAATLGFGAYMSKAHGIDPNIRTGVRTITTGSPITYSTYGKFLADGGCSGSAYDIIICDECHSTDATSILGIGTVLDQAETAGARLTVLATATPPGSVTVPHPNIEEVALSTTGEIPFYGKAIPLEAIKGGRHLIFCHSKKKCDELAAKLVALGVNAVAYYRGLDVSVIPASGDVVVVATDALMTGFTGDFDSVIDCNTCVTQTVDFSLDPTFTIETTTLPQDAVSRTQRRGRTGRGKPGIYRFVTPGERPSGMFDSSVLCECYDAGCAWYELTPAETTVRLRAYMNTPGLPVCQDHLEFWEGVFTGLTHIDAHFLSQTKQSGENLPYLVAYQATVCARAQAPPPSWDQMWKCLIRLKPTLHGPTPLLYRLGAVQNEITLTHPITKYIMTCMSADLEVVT

Q: Which Ki does the source give for `CCCC(NC(=O)[C@@H]1Cc2cccc(c2)/C=C/CCCCCC(=O)N[C@@H](C2CCCCC2)C(=O)N1)C(=O)C(=O)NCC(=O)N[C@H](C(=O)O)c1ccccc1` (stereo not given in full) here?
A: The Ki was 84 nM.

Q: With `CCCC(NC(=O)[C@@H]1Cc2cccc(c2)/C=C/CCCCCC(=O)N[C@@H](C2CCCCC2)C(=O)N1)C(=O)C(=O)NCC(=O)N[C@H](C(=O)N(C)C)c1ccccc1` (stereo not given in full) as the molecule, how does the Ki read?
A: Its Ki is 120 nM.

Q: How did the Ki turn out when `CCCC(NC(=O)[C@@H]1Cc2cccc(c2)/C=C/CCCCCC(=O)N[C@@H](C2CCCCC2)C(=O)N1)C(=O)C(=O)NCC(=O)N[C@H](C(=O)OC(C)(C)C)c1ccccc1` (stereo not given in full) was run?
A: The Ki was 1200 nM.

Q: Which Ki does the source give for `CCCC(NC(=O)[C@@H]1Cc2cccc(c2)CCCCCCCC(=O)N[C@@H](C2CCCCC2)C(=O)N1)C(=O)C(=O)NCC(=O)N[C@H](C(=O)N(C)C)c1ccccc1` (stereo not given in full) ([Chg][Phe(3-(CH2)7CO)][X1]G[Phg]-NMe2; lactam N-2) here?
A: Its Ki is 110 nM.

Q: For `CCCC(NC(=O)[C@@H]1Cc2cccc(c2)CCCCCCCC(=O)N[C@@H](C2CCCCC2)C(=O)N1)C(=O)C(=O)NCC(=O)N[C@H](C(=O)OC(C)(C)C)c1ccccc1` (stereo not given in full) ([Chg][Phe(3-(CH2)7CO)][X1]G[Phg]-OtBu; lactam N-2), which Ki is on record?
A: Its Ki is 2300 nM.
